Consider 15 compounds from the supplement of paper PMC10627819.

SMILES strings stand for the structures.

Holding throughout (assay): Bliss interaction score (quartile over a dose matrix) (fitness difference); higher = more antagonism (negative = synergy)
The test system of one test is S. aureus DSM 20231. The essentials:
(§1)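 Fitness was defined as normalised growth: OD595 at the start of stationary phase divided by the plate's robust no-drug mean and capped at 1. Single-drug fitness was inferred from combination measurements. The Bliss score is observed fitness minus the product of the single-drug values, summarised by quartiles across technical, biological and donor/recipient replicates.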

The subject of a further test is S. aureus Newman. The essentials:
as §1

A further test has as its system B. subtilis 168. An outline of the steps:
as §1

In the next test the test system is S. pneumoniae D39V. An outline of the steps:
as §1
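Note: first quartile when negative (synergy) and third quartile when positive (antagonism).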

With `CO/N=C(\C(=O)N[C@@H]1C(=O)N2C(C(=O)O)=C(COC(N)=O)CS[C@H]12)c1ccco1` [Cefuroxime] + CO[C@@]12[C@H](COC(N)=O)C3=C(C(=O)C(C)=C(N)C3=O)N1C[C@@H]1N[C@@H]12 [MitomycinC], the Bliss interaction score in the test with S. aureus DSM 20231 is -0.0745; with S. aureus Newman, -0.0903; in the test with B. subtilis 168 it was -0.211; in the test with S. pneumoniae D39V it was 0.0599.
`CO/N=C(\C(=O)N[C@@H]1C(=O)N2C(C(=O)O)=C(COC(N)=O)CS[C@H]12)c1ccco1` [Cefuroxime] + CO[C@H]1/C=C/O[C@@]2(C)Oc3c(C)c(O)c4c(O)c(c(/C=N/N5CCN(C)CC5)c(O)c4c3C2=O)NC(=O)/C(C)=C\C=C\[C@H](C)[C@H](O)[C@@H](C)[C@@H](O)[C@@H](C)[C@H](OC(C)=O)[C@@H]1C [Rifampicin]: the Bliss interaction score in the test on S. aureus DSM 20231 came to 0.109; in the test on S. aureus Newman it was 0.0557; with B. subtilis 168 it was 0.0741; in the test on S. pneumoniae D39V, 0.102.
Taken in the same sequence, the figures for `CO/N=C(\C(=O)N[C@@H]1C(=O)N2C(C(=O)O)=C(COC(N)=O)CS[C@H]12)c1ccco1` [Cefuroxime] + C[C@@H](O)[C@H]1C(=O)N2C(C(=O)O)=C(SCCNC=N)C[C@H]12 [Imipenem] were 0.145, -0.0353, 0.0678 and 0.0481.
In the case of `CO/N=C(\C(=O)N[C@@H]1C(=O)N2C(C(=O)O)=C(COC(N)=O)CS[C@H]12)c1ccco1` [Cefuroxime] + Clc1ccc(COC(Cn2ccnc2)c2ccc(Cl)cc2Cl)c(Cl)c1 [Miconazole], the Bliss interaction score worked out at 0.112 in the test with S. aureus DSM 20231, 0.025 in the test with S. aureus Newman, 0.0653 in the test on B. subtilis 168 and 0.0717 in the test with S. pneumoniae D39V.
Taken in the same sequence, the figures for `CO/N=C(\C(=O)N[C@@H]1C(=O)N2C(C(=O)O)=C(COC(N)=O)CS[C@H]12)c1ccco1` [Cefuroxime] + N[C@@H]1CONC1=O [CycloserineD] were 0.114, -0.0647, -0.0514 and 0.0839.
Taken in the same sequence, the figures for `CO/N=C(\C(=O)N[C@@H]1C(=O)N2C(C(=O)O)=C(COC(N)=O)CS[C@H]12)c1ccco1` [Cefuroxime] + O=C1CN(/N=C/c2ccc([N+](=O)[O-])o2)C(=O)N1 [Nitrofurantoin] were 0.0612, -0.0317, -0.104 and 0.0749.
For the compound `CO/N=C(\C(=O)N[C@@H]1C(=O)N2C(C(=O)O)=C(COC(N)=O)CS[C@H]12)c1ccco1` [Cefuroxime] + O=C(N[C@H](CO)[C@H](O)c1ccc([N+](=O)[O-])cc1)C(Cl)Cl [Chloramphenicol], the Bliss interaction score in the test on S. aureus DSM 20231 was -0.341; with S. aureus Newman, -0.0407; in the test on B. subtilis 168, 0.162; with S. pneumoniae D39V it was -0.0245.
In the case of `CO/N=C(\C(=O)N[C@@H]1C(=O)N2C(C(=O)O)=C(COC(N)=O)CS[C@H]12)c1ccco1` [Cefuroxime] + O=C(O)c1cn(C2CC2)c2cc(N3CCNCC3)c(F)cc2c1=O [Ciprofloxacin], the Bliss interaction score is -0.31 in the test with S. aureus DSM 20231, -0.0563 with S. aureus Newman, -0.171 with B. subtilis 168 and -0.0381 in the test on S. pneumoniae D39V.
The corresponding values for `CO/N=C(\C(=O)N[C@@H]1C(=O)N2C(C(=O)O)=C(COC(N)=O)CS[C@H]12)c1ccco1` [Cefuroxime] + Oc1cc(Cl)ccc1Oc1ccc(Cl)cc1Cl [Triclosan] are 0.0932, -0.0309, 0.0538 and 0.0619.
Taken in the same sequence, the figures for `O=C(O)c1cn(C2CC2)c2cc(N3CCNCC3)c(F)cc2c1=O` [Ciprofloxacin] + CC1(C)S[C@@H]2[C@H](NC(=O)Cc3ccccc3)C(=O)N2[C@H]1C(=O)O [PenicillinG] were -0.0624, -0.0565, 0.0481 and 0.0662.
Taken in the same sequence, the figures for `O=C(O)c1cn(C2CC2)c2cc(N3CCNCC3)c(F)cc2c1=O` [Ciprofloxacin] + CC(=O)O[C@H]1C[C@@]2(C)[C@@H](C[C@@H](O)[C@H]3[C@@]4(C)CC[C@@H](O)[C@@H](C)[C@@H]4CC[C@@]32C)/C1=C(\CCC=C(C)C)C(=O)O [Fusidic acid] were 0.04, 0.0831, 0.19 and 0.0674.
Turning to `O=C(O)c1cn(C2CC2)c2cc(N3CCNCC3)c(F)cc2c1=O` [Ciprofloxacin] + CC[C@H]1OC(=O)[C@H](C)C(=O)[C@H](C)[C@@H](O[C@@H]2O[C@H](C)C[C@H](N(C)C)[C@H]2O)[C@](C)(OC)C[C@@H](C)C(=O)[C@H](C)[C@H]2N(CCCCn3cnc(-c4cccnc4)c3)C(=O)O[C@]12C [Telithromycin], the Bliss interaction score with S. aureus DSM 20231 was 0.0454; in the test on S. aureus Newman it was 0.0334; in the test on B. subtilis 168, 0.149; with S. pneumoniae D39V, 0.0763.
Taken in the same sequence, the figures for `O=C(O)c1cn(C2CC2)c2cc(N3CCNCC3)c(F)cc2c1=O` [Ciprofloxacin] + CC[C@H]1OC(=O)[C@H](C)[C@@H](O[C@H]2C[C@@](C)(OC)[C@@H](O)[C@H](C)O2)[C@H](C)[C@@H](O[C@@H]2O[C@H](C)C[C@H](N(C)C)[C@H]2O)[C@](C)(O)C[C@@H](C)C(=O)[C@H](C)[C@@H](O)[C@]1(C)O [Erythromycin] were 0.0597, 0.0474, 0.211 and 0.065.
Take `O=C(O)c1cn(C2CC2)c2cc(N3CCNCC3)c(F)cc2c1=O` [Ciprofloxacin] + CN(C)[C@@H]1C(O)=C(C(N)=O)C(=O)[C@@]2(O)C(O)=C3C(=O)c4c(O)ccc(Cl)c4[C@@](C)(O)[C@H]3C[C@@H]12 [Clortetracycline]: the Bliss interaction score in the test on S. aureus DSM 20231 is 0.104; in the test on S. aureus Newman, 0.119; with B. subtilis 168 it was 0.199; in the test on S. pneumoniae D39V it was -0.035.
The corresponding values for `O=C(O)c1cn(C2CC2)c2cc(N3CCNCC3)c(F)cc2c1=O` [Ciprofloxacin] + CN[C@H](CC(C)C)C(=O)N[C@H]1C(=O)N[C@@H](CC(N)=O)C(=O)N[C@H]2C(=O)N[C@H]3C(=O)N[C@H](C(=O)N[C@H](C(=O)O)c4cc(O)cc(O)c4-c4cc3ccc4O)[C@H](O[C@H]3C[C@](C)(N)[C@@H](O)[C@H](C)O3)c3ccc(c(Cl)c3)Oc3cc2cc(c3O[C@@H]2O[C@H](CO)[C@@H](O)[C@H](O)[C@H]2O[C@H]2C[C@](C)(NCc3ccc(-c4ccc(Cl)cc4)cc3)[C@@H](O)[C@H](C)O2)Oc2ccc(cc2Cl)[C@H]1O [Oritavancin] are -0.0468, -0.0474, -0.0274 and 0.0622.
